Assay results from patent US6358885B1, “Substituted phenylheterocyclic herbicides” (Mississippi State University, priority 1992, dated 2002).

Experiments:
Test in all cases: Test F preemergence/postemergence greenhouse plant response rating 0 to 100
[1] = tested on: wild mustard; assay type: in vivo, Sinapis arvensis; conditions: POSTEMERGENCE, 0 to 100 scale
Source text: (§1) Compounds evaluated in this test were formulated in a non-phytoxic solvent and applied to the soil surface before plant seedlings emerged (preemergence application) and to plants that were in the one-to-four leaf stage (postemergence application). A sandy loam soil was used for the preemergence test while a mixture of sandy loam soil and greenhouse potting mix in a 60:40 ratio was used for the postemergence test. Test compounds were applied within approximately one day after planting seeds for the preemergence test. Plantings of these crops and weed species were adjusted to produce plants of appropriate size for the postemergence test. All plant species were grown using normal greenhouse practices. Crop and weed species include winter barley (Hordeum vulgare cv. ‘Igri’), blackgrass (Alopecurus myosuroides), chickweed (Stellaria media), downy brome (Bromus tectorum), field violet (Viola arvensis), galium (Galium aparine), green foxtail (Setaria viridis), kochia (Kochia scoparia), lambsquarters (Chenopodium album), speedwell (Veronica persica), rape (Brassica napus), ryegrass (Lolium multiflorum), sugar beet (Beta vulgaris cv. ‘USl’), sunflower (Helianthus annuus cv. ‘Russian Giant’), spring wheat (Triticum aestivum cv. ‘ERA’), winter wheat (Triticum aestivum cv. ‘Talent’), wild buckwheat (Polygonum convolvulus), wild mustard (Sinapis arvensis), wild oat (Avena fatua), and wild radish (Raphanus raphanistrum). Blackgrass, galium and wild oat were treated at two growth stages. […] Treated plants and untreated controls were maintained in a greenhouse for approximately 21 to 28 days, after which all treated plants were compared to untreated controls and visually evaluated. […] A dash response (-) means no test result.

[2] = tested on: field violet; assay type: in vivo, Viola arvensis; conditions: POSTEMERGENCE, 0 to 100 scale
Source text: as §1

[3] = tested on: ryegrass; assay type: in vivo, Lolium multiflorum; conditions: POSTEMERGENCE, 0 to 100 scale
Source text: as §1

[4] = tested on: chickweed; assay type: in vivo, Stellaria media; conditions: POSTEMERGENCE, 0 to 100 scale
Source text: as §1

[5] = tested on: wild radish; assay type: in vivo, Raphanus raphanistrum; conditions: POSTEMERGENCE, 0 to 100 scale
Source text: as §1

[6] = tested on: winter wheat; assay type: in vivo, Triticum aestivum cv. ‘Talent’; conditions: POSTEMERGENCE, 0 to 100 scale
Source text: as §1

[7] = tested on: kochia; assay type: in vivo, Kochia scoparia; conditions: POSTEMERGENCE, 0 to 100 scale
Source text: as §1

[8] = tested on: winter barley; assay type: in vivo, Hordeum vulgare cv. ‘Igri’; conditions: POSTEMERGENCE, 0 to 100 scale
Source text: as §1

[9] = tested on: lambsquarters; assay type: in vivo, Chenopodium album; conditions: POSTEMERGENCE, 0 to 100 scale
Source text: as §1

[10] = tested on: wild oat; assay type: in vivo, Avena fatua; conditions: POSTEMERGENCE, 0 to 100 scale; for Wild oat (1) plant response rating: stage (1) two to three leaves; for Wild oat (2) plant response rating: stage (2) approximately four leaves or initial tillering
Source text: as §1

[11] = tested on: sunflower; assay type: in vivo, Helianthus annuus cv. ‘Russian Giant’; conditions: POSTEMERGENCE, 0 to 100 scale
Source text: as §1

[12] = tested on: spring wheat; assay type: in vivo, Triticum aestivum cv. ‘ERA’; conditions: POSTEMERGENCE, 0 to 100 scale
Source text: as §1

[13] = tested on: downy brome; assay type: in vivo, Bromus tectorum; conditions: POSTEMERGENCE, 0 to 100 scale
Source text: as §1

[14] = tested on: galium; assay type: in vivo, Galium aparine; conditions: POSTEMERGENCE, 0 to 100 scale; for Galium (1) plant response rating: stage (1) two to three leaves; for Galium (2) plant response rating: stage (2) approximately four leaves or initial tillering
Source text: as §1

With `C#CC(C)N1C(=O)COc2cc(F)c(-c3nn4c(c3Cl)CCCC4)cc21` (stereo not shown) [Compound 50] the “Wild mustard plant response rating” value ([1]; Rate 16 g/ha) was 70, the “Wild mustard plant response rating” value ([1]; Rate 32 g/ha) was 70 and the “Wild mustard plant response rating” value ([1]; Rate 64 g/ha) was 100. For the same compound, the “Wild mustard plant response rating” value ([1]; Rate 125 g/ha) was 100, the “Field violet plant response rating” value ([2]; Rate 16 g/ha) was 100 and the “Field violet plant response rating” value ([2]; Rate 32 g/ha) was 100. The “Field violet plant response rating” value ([2]; Rate 64 g/ha) was 100, the “Field violet plant response rating” value ([2]; Rate 125 g/ha) was 100 and the “Ryegrass plant response rating” value ([3]; Rate 16 g/ha) was 0. For the same compound, the “Ryegrass plant response rating” value ([3]; Rate 32 g/ha) was 0, the “Ryegrass plant response rating” value ([3]; Rate 64 g/ha) was 0 and the “Ryegrass plant response rating” value ([3]; Rate 125 g/ha) was 10. For the same compound, the “Chickweed plant response rating” value ([4]; Rate 16 g/ha) was 70, the “Chickweed plant response rating” value ([4]; Rate 32 g/ha) was 100 and the “Chickweed plant response rating” value ([4]; Rate 64 g/ha) was 100. The “Chickweed plant response rating” value ([4]; Rate 125 g/ha) was 100, the “Wild radish plant response rating” value ([5]; Rate 16 g/ha) was 50 and the “Wild radish plant response rating” value ([5]; Rate 32 g/ha) was 50. For the same compound, the “Wild radish plant response rating” value ([5]; Rate 64 g/ha) was 55, the “Wild radish plant response rating” value ([5]; Rate 125 g/ha) was 70 and the “Wheat (Winter) plant response rating” value ([6]; Rate 16 g/ha) was 0. The “Wheat (Winter) plant response rating” value ([6]; Rate 32 g/ha) was 0, the “Wheat (Winter) plant response rating” value ([6]; Rate 64 g/ha) was 0 and the “Wheat (Winter) plant response rating” value ([6]; Rate 125 g/ha) was 0. For the same compound, the “Kochia plant response rating” value ([7]; Rate 16 g/ha) was 100, the “Kochia plant response rating” value ([7]; Rate 32 g/ha) was 100 and the “Kochia plant response rating” value ([7]; Rate 64 g/ha) was 100. The “Kochia plant response rating” value ([7]; Rate 125 g/ha) was 100, the “Winter Barley plant response rating” value ([8]; Rate 16 g/ha) was 0 and the “Winter Barley plant response rating” value ([8]; Rate 32 g/ha) was 0. For the same compound, the “Winter Barley plant response rating” value ([8]; Rate 64 g/ha) was 0, the “Winter Barley plant response rating” value ([8]; Rate 125 g/ha) was 50 and the “Lambsquarters plant response rating” value ([9]; Rate 16 g/ha) was 30. For the same compound, the “Lambsquarters plant response rating” value ([9]; Rate 32 g/ha) was 50, the “Lambsquarters plant response rating” value ([9]; Rate 64 g/ha) was 100 and the “Lambsquarters plant response rating” value ([9]; Rate 125 g/ha) was 100. The “Wild oat (1) plant response rating” value ([10]; Rate 16 g/ha) was 0, the “Wild oat (2) plant response rating” value ([10]; Rate 16 g/ha) was 0 and the “Wild oat (1) plant response rating” value ([10]; Rate 32 g/ha) was 0. For the same compound, the “Wild oat (2) plant response rating” value ([10]; Rate 32 g/ha) was 0, the “Wild oat (1) plant response rating” value ([10]; Rate 64 g/ha) was 0 and the “Wild oat (2) plant response rating” value ([10]; Rate 64 g/ha) was 0. The “Wild oat (1) plant response rating” value ([10]; Rate 125 g/ha) was 0, the “Wild oat (2) plant response rating” value ([10]; Rate 125 g/ha) was 0 and the “Sunflower plant response rating” value ([11]; Rate 16 g/ha) was 40. The “Sunflower plant response rating” value ([11]; Rate 32 g/ha) was 60, the “Sunflower plant response rating” value ([11]; Rate 64 g/ha) was 60 and the “Sunflower plant response rating” value ([11]; Rate 125 g/ha) was 100. The “Wheat (Spring) plant response rating” value ([12]; Rate 16 g/ha) was 0, the “Wheat (Spring) plant response rating” value ([12]; Rate 32 g/ha) was 0 and the “Wheat (Spring) plant response rating” value ([12]; Rate 64 g/ha) was 0. The “Wheat (Spring) plant response rating” value ([12]; Rate 125 g/ha) was 10, the “Downy brome plant response rating” value ([13]; Rate 16 g/ha) was 0 and the “Downy brome plant response rating” value ([13]; Rate 32 g/ha) was 0. For the same compound, the “Downy brome plant response rating” value ([13]; Rate 64 g/ha) was 0, the “Downy brome plant response rating” value ([13]; Rate 125 g/ha) was 0 and the “Galium (1) plant response rating” value ([14]; Rate 16 g/ha) was 100. For the same compound, the “Galium (2) plant response rating” value ([14]; Rate 16 g/ha) was 100, the “Galium (1) plant response rating” value ([14]; Rate 32 g/ha) was 100 and the “Galium (2) plant response rating” value ([14]; Rate 32 g/ha) was 100. The “Galium (1) plant response rating” value ([14]; Rate 64 g/ha) was 100, the “Galium (2) plant response rating” value ([14]; Rate 64 g/ha) was 100 and the “Galium (1) plant response rating” value ([14]; Rate 125 g/ha) was 100. The “Galium (2) plant response rating” value ([14]; Rate 125 g/ha) was 100.
